Target: T1, DPP-IV, obtained from porcine kidneys (Sus scrofa, UniProt P22411)
T1 construct: DPP-IV, obtained from porcine kidneys; from tissue; host or cells: porcine kidney
Assay: Measurement of DPPIV inhibiting effects (Gly-Pro-p-nitroanilide, absorbance at 405 nm)
Format: biochemical
Conditions: porcine kidney DPP-IV 10 mU/mL, 20 min preincubation, Gly-Pro-p-nitroanilide 0.33 mM, pH 7.4
Description: Measurement of DPPIV Inhibiting Effects
DPP-IV, obtained from porcine kidneys, was dissolved in a reaction buffer solution (50 mM Tris-HCl, pH 7.4, 0.1% BSA) such that the concentration of DPP-IV was at 10 mU/mL. This solution (110 μl) was placed into test tubes, to which compounds to be tested were further added at a quantity of 15 μl and incubated at room temperature for 20 minutes. Twenty-five microliters of a solution in which Gly-Pro-p-nitroanilide was dissolved at 2 mM was added (final concentration, 0.33 mM) to start the enzymatic reaction. The reaction time was 20 minutes. The reaction was stopped by the addition of 25 μl of 1 N phosphoric acid.

T1 sequence (P22411 whole entry): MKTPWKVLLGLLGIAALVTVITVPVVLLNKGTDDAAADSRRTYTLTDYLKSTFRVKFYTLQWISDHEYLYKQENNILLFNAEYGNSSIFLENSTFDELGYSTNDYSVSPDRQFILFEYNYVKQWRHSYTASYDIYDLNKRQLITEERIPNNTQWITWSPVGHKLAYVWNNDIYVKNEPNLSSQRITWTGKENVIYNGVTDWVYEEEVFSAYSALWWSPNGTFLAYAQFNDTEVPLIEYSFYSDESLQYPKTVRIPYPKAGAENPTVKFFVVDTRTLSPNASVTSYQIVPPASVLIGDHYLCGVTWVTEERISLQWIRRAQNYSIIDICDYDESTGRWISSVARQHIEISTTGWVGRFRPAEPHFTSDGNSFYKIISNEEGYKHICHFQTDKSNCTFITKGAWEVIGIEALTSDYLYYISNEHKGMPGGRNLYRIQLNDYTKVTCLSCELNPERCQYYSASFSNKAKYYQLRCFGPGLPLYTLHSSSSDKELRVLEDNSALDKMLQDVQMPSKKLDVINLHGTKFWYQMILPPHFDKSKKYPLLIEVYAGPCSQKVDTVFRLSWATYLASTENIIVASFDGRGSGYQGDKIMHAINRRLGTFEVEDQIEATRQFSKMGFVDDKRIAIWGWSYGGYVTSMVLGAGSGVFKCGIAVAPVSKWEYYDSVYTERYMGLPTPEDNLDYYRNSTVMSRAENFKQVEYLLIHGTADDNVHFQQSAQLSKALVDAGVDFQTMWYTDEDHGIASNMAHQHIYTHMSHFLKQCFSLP

Molecule	IC50 [nM]
CN(C)C(=O)n1cnc(SCC2CCCCC2)n1 [Example 16, 3-Cyclohexylmethylthio-1-dimethylcarbamoyl-1H-1,2,4-triazole]	5530
CC(C)CN(C)C(=O)n1cnc(S(=O)(=O)[C@@H]2C[C@@H]3CC[C@H]2C3)n1 (relative stereo) [Example 30, 3-(Endo-norbornan-2-yl)sulfonyl-1-(N-methyl-N-isobutylcarbamoyl)-1H-1,2,4-triazole]	266
Cc1ccc(S(=O)(=O)c2ccn(C(=O)N(C)C)n2)cc1 [Example 59, 3-(4-Toluenesulfonyl)-1-dimethylcarbamoyl-1H-pyrazole]	4220
CN(C(=O)n1cnc(S(=O)(=O)[C@@H]2C[C@@H]3CC[C@H]2C3)n1)C(C)(C)C (relative stereo) [Example 31, 3-(Endo-norbornan-2-yl)sulfonyl-1-(N-methyl-N-tert-butylcarbamoyl)-1H-1,2,4-triazole]	920
COCCOc1cccc(C)c1Sc1ncn(C(=O)N(C)C)n1 [Example 42, 3-[2-(2-Methoxyethyl)oxy-6-methylphenyl]thio-1-dimethylcarbamoyl-1H-1,2,4-triazole]	551
C=CCN(C)C(=O)n1cnc(S(=O)(=O)[C@@H]2C[C@@H]3CC[C@H]2C3)n1 (relative stereo) [Example 27, 3-(Endo-norbornan-2-yl)sulfonyl-1-(N-methyl-N-allylcarbamoyl)-1H-1,2,4-triazole]	78.2
CN(C)C(=O)n1cnc(Sc2cccc(Br)n2)n1 [Example 52, 3-(6-Bromo-2-pyridyl)thio-1-dimethylcarbamoyl-1H-1,2,4-triazole]	4790
CCCN(C)C(=O)n1cnc(S(=O)(=O)[C@@H]2C[C@@H]3CC[C@H]2C3)n1 (relative stereo) [Example 28, 3-(Endo-norbornan-2-yl)sulfonyl-1-(N-methyl-N-propylcarbamoyl)-1H-1,2,4-triazole]	58.4
CCCN(C)C(=O)n1cnc(S(=O)(=O)c2c(C)cc(C)cc2C)n1 [Example 37, 3-(2,4,6-Trimethylphenyl)sulfonyl-1-(N-methyl-N-propylcarbamoyl)-1H-1,2,4-triazole]	10
CN(C)C(=O)n1cnc(SC(c2ccc(F)cc2)c2ccc(F)cc2)n1 [Example 8, 3-[Bis(4-fluorophenyl)methyl]thio-1-dimethylcarbamoyl-1H-1,2,4-triazole]	3360
Cc1cc(C)c(S(=O)(=O)c2ncn(C(=O)N(C)C(C)C)n2)c(C)c1 [Example 38, 3-(2,4,6-Trimethylphenyl)sulfonyl-1-(N-methyl-N-isopropylcarbamoyl)-1H-1,2,4-triazole]	1.63
CN(C)C(=O)n1cnc(SC2CCCCC2)n1 [Example 14, 3-Cyclohexylthio-1-dimethylcarbamoyl-1H-1,2,4-triazole]	2220
O=C(N1CCCC1)n1cnc(S(=O)(=O)[C@@H]2C[C@@H]3CC[C@H]2C3)n1 (relative stereo) [Example 26, 3-(Endo-norbornan-2-yl)sulfonyl-1-(pyrrolidin-1-yl)carbonyl-1H-1,2,4-triazole]	244
CC(C)N(C)C(=O)n1cnc(S(=O)(=O)[C@@H]2C[C@@H]3CC[C@H]2C3)n1 (relative stereo) [Example 29, 3-(Endo-norbornan-2-yl)sulfonyl-1-(N-methyl-N-isopropylcarbamoyl)-1H-1,2,4-triazole]	8.88
CN(C)C(=O)n1cnc(S[C@@H]2C[C@@H]3CC[C@H]2C3)n1 (relative stereo) [Example 12, 3-(Endo-norbornan-2-yl)thio-1-dimethylcarbamoyl-1H-1,2,4-triazole]	1730
CN(C)C(=O)n1cnc(SCC23CC4CC(CC(C4)C2)C3)n1 [Example 18, 3-(1-Adamantylmethyl)thio-1-dimethylcarbamoyl-1H-1,2,4-triazole]	4530
CCN(C)C(=O)n1cnc(S(=O)(=O)[C@@H]2C[C@@H]3CC[C@H]2C3)n1 (relative stereo) [Example 24, 3-(Endo-norbornan-2-yl)sulfonyl-1-(N-methyl-N-ethylcarbamoyl)-1H-1,2,4-triazole]	21.5
O=C(N1CCSC1)n1cnc(S(=O)(=O)[C@@H]2C[C@@H]3CC[C@H]2C3)n1 (relative stereo) [Example 25, 3-(Endo-norbornan-2-yl)sulfonyl-1-(1,3-thiazolidin-3-yl)carbonyl-1H-1,2,4-triazole]	57.4
Cc1noc(C)c1Sc1ncn(C(=O)N(C)C)n1 [Example 46, 3-(3,5-Dimethylisoxazol-4-yl)thio-1-dimethylcarbamoyl-1H-1,2,4-triazole]	1770
CN(C)C(=O)n1cnc(S(=O)(=O)CC23CC4CC(CC(C4)C2)C3)n1 [Example 19, 3-(1-Adamantylmethyl)sulfonyl-1-dimethylcarbamoyl-1H-1,2,4-triazole]	233
CN(C)C(=O)n1cnc(Sc2cc(F)c(C#N)cc2F)n1 [Example 44, 3-(4-Cyano-2,5-difluorophenyl)thio-1-dimethylcarbamoyl-1H-1,2,4-triazole]	318
3-(Endo-norbornan-2-yl)sulfonyl-1-(N-methyl-N-phenylcarbamoyl)-1H-1,2,4-triazole [Example 22]	2290
Cc1cc(C)c(Sc2ncn(C(=O)N(C)C)n2)c(C)c1 [Example 32, 3-(2,4,6-Trimethylphenyl)thio-1-dimethylcarbamoyl-1H-1,2,4-triazole]	3690
CCN(C)C(=O)n1cnc(S(=O)(=O)c2c(C)cc(C)cc2C)n1 [Example 36, 3-(2,4,6-Trimethylphenyl)sulfonyl-1-(N-methyl-N-ethylcarbamoyl)-1H-1,2,4-triazole]	0.347
CN(C)C(=O)n1cnc(SC(c2ccccc2)c2ccccc2)n1 [Example 6, 3-(Diphenylmethyl)thio-1-dimethylcarbamoyl-1H-1,2,4-triazole]	3460
Cc1cccc(OCC(F)(F)F)c1S(=O)(=O)c1ncn(C(=O)N(C)C)n1 [Example 41, 3-[2-(2,2,2-Trifluoroethyl)oxy-6-methylphenyl]sulfonyl-1-dimethyl-carbamoyl-1H-1,2,4-triazole]	4.25
Cc1cc(C)c([S+]([O-])c2ncn(C(=O)N(C)C)n2)c(C)c1 (stereo not drawn) [Example 39, 3-(2,4,6-Trimethylphenyl)sulfinyl-1-dimethylcarbamoyl-1H-1,2,4-triazole]	22.8

The remaining lines, values ahead:

IC50 [nM]	Molecule
216	CN(C)C(=O)n1cnc(S(=O)(=O)C2CCOc3ccccc32)n1 (stereo not drawn) [Example 11, 3-(Chroman-4-yl)sulfonyl-1-dimethylcarbamoyl-1H-1,2,4-triazole]
9.51	Cc1cc(C)c(S(=O)(=O)c2ncn(C(=O)N(C)C)n2)c(C)c1 [Example 33, 3-(2,4,6-Trimethylphenyl)sulfonyl-1-dimethylcarbamoyl-1H-1,2,4-triazole]
96.1	CN(C)C(=O)n1cnc(S(=O)(=O)N2C3CCCC2CC3)n1 [Example 55, 3-(8-Azabicyclo[3.2.1]octan-8-yl)sulfonyl-1-dimethylcarbamoyl-1H-1,2,4-triazole]
103	Cc1noc(C)c1S(=O)(=O)c1ncn(C(=O)N(C)C)n1 [Example 47, 3-(3,5-Dimethylisoxazol-4-yl)sulfonyl-1-dimethylcarbamoyl-1H-1,2,4-triazole]
1350	CN(C)C(=O)n1cnc(S(=O)(=O)Cc2ccc(C(C)(C)C)cc2)n1 [Example 5, 3-(4-Tert-butylbenzyl)sulfonyl-1-dimethylcarbamoyl-1H-1,2,4-triazole]
1550	Cc1nn(-c2ccccc2)c(C)c1Sc1ncn(C(=O)N(C)C)n1 [Example 48, 3-(3,5-Dimethyl-1-phenylpyrazol-4-yl)thio-1-dimethylcarbamoyl-1H-1,2,4-triazole]
101	Cc1cc(C)n(S(=O)(=O)c2ncn(C(=O)N(C)C)n2)n1 [Example 56, 3-(3,5-Dimethylpyrazol-1-yl)sulfonyl-1-dimethylcarbamoyl-1H-1,2,4-triazole]
32.4	CN(C)C(=O)n1cnc(S(=O)(=O)c2cc(F)c(C#N)cc2F)n1 [Example 45, 3-(4-Cyano-2,5-difluorophenyl)sulfonyl-1-dimethylcarbamoyl-1H-1,2,4-triazole]
25.8	Cc1nn(-c2ccccc2)c(C)c1S(=O)(=O)c1ncn(C(=O)N(C)C)n1 [Example 49, 3-(3,5-Dimethyl-1-phenylpyrazol-4-yl)sulfonyl-1-dimethylcarbamoyl-1H-1,2,4-triazole]
230	CN(C)C(=O)n1cnc(S(=O)(=O)N2CCc3ccccc32)n1 [Example 57, 3-(2,3-Dihydro-1H-indol-1-yl)sulfonyl-1-dimethylcarbamoyl-1H-1,2,4-triazole]
416	CN(C)C(=O)n1cnc(S(=O)(=O)CC2CCCCC2)n1 [Example 17, 3-Cyclohexylmethylsulfonyl-1-dimethylcarbamoyl-1H-1,2,4-triazole]
192	CN(C)C(=O)n1cnc(S(=O)(=O)C(c2ccccc2)c2ccccc2)n1 [Example 7, 3-(Diphenylmethyl)sulfonyl-1-dimethylcarbamoyl-1H-1,2,4-triazole]
5380	Cc1nc2ccccn2c1Sc1ncn(C(=O)N(C)C)n1 [Example 50, 3-(2-Methylimidazo[1,2-a]pyridin-3-yl)thio-1-dimethylcarbamoyl-1H-1,2,4-triazole]
688	CN(C)C(=O)n1cnc(S(=O)(=O)CC(C)(C)C)n1 [Example 21, 3-(2-Dimethylpropyl)sulfonyl-1-dimethylcarbamoyl-1H-1,2,4-triazole]
219	CN(C)C(=O)n1cnc(S(=O)(=O)C(c2ccc(F)cc2)c2ccc(F)cc2)n1 [Example 9, 3-[Bis(4-fluorophenyl)methyl]sulfonyl-1-dimethylcarbamoyl-1H-1,2,4-triazole]

From patent publication US7238720B2, “Pharmaceutical use of N-carbamoylazole derivatives” (Eisai R & D Management Co. Ltd., priority 2001, dated 2007)
